In ChEMBL document CHEMBL5331061, “Design, synthesis, and biological evaluation of Wee1 kinase degraders” (Eur J Med Chem, 2022):
Activity calls are given as the source filed them. The rule behind the calls is not given here.

Key:
[1] = biological target: Serine/threonine-protein kinase PLK1 (Homo sapiens, UniProt P53350); test: Inhibition of PLK1 (unknown origin)
MV4-11 [2] = test: Effect on PLK1 expression in human MV4-11 cells at IC50 measured after 6 hrs by Western blot analysis; format: functional, cell-based
MV4-11 [3] = test: Effect on Wee1 mRNA expression in human MV4-11 cells at 50 nM measured upto 72 hrs by qRT-PCR assay; format: functional, cell-based
MV4-11 [4] = test: Effect on PLK1 mRNA expression in human MV4-11 cells at 50 nM measured upto 72 hrs by qRT-PCR assay; format: functional, cell-based
MV4-11 [5] = test: Effect on PKMYT1 mRNA expression in human MV4-11 cells at 50 nM measured upto 72 hrs by qRT-PCR assay; format: functional, cell-based
MV4-11 [6] = test: Induction of cell cycle arrest in human MV4-11 cells assessed as accumulation of cells at G0/G1 phase incubated for 24 hrs by […] PI staining based flow cytometry analysis; format: functional; conditions: dose 12.5-200 nM
MV4-11 [7] = test: Induction of apoptosis in human MV4-11 cells assessed as increase in early apoptotic cells incubated for 48 hrs by annexin V and PI staining based flow cytometry analysis; format: functional, cell-based; conditions: dose 12.5-200 nM
MV4-11 [8] = test: Induction of apoptosis in human MV4-11 cells assessed as increase in late apoptotic cells incubated for 48 hrs by annexin V and PI staining based flow cytometry analysis; format: functional, cell-based; conditions: dose 12.5-200 nM
[9] = biological target: Cyclin-dependent kinase 1 (Homo sapiens) (UniProt P06493); test: (§1) Inhibition of CDK1 phosphorylation in human MV4-11 cells assessed as reduction in phosphorylated CDK1 level by measuring residual activity at 50 uM pretreated for 2 hrs with proteasome inhibitor carfilzomib followed by incubation with compound for 3 hrs by Western blot analysis (reference value: 29%); format: cell-based
Sequence of Cyclin-dependent kinase 1 (Homo sapiens) (P06493 whole entry, looked up): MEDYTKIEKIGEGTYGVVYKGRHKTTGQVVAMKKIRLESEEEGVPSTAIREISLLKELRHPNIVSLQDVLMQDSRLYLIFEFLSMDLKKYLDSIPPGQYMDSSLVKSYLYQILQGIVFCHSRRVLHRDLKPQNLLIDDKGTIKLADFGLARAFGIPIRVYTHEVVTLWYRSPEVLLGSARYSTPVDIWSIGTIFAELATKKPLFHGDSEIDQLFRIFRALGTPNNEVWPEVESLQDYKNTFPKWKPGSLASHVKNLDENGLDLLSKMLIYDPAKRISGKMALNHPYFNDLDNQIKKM

[10] = biological target: Cyclin-dependent kinase 1 (Homo sapiens) (UniProt P06493); test: as §1, with “lenalidomide” for “carfilzomib”; format: cell-based
[11] = biological target: Cyclin-dependent kinase 1 (Homo sapiens) (UniProt P06493); test: Inhibition of CDK1 phosphorylation in human MV4-11 cells assessed as reduction in phosphorylated CDK1 level by measuring residual activity at 50 uM pretreated for 2 hrs with proteasome inhibitor Iberdomide followed by incubation with compound for 3 hrs by Western blot analysis (reference value: 29%); format: cell-based
[12] = biological target: Cyclin-dependent kinase 1 (Homo sapiens) (UniProt P06493); test: Inhibition of CDK1 phosphorylation in human MV4-11 cells assessed as reduction in phosphorylated CDK1 level by measuring residual activity at 50 uM pretreated for 2 hrs with proteasome inhibitor Bortezomib followed by incubation with compound for 3 hrs by Western blot analysis (reference value: 29%); format: cell-based
[13] = biological target: T1, Membrane-associated tyrosine- and threonine-specific cdc2-inhibitory kinase (Homo sapiens) (UniProt Q99640); test: Induction of PKMYT1 degradation in human MV4-11 cells at 50 nM measured after 3 hrs by Western blot assay; format: cell-based
T1 sequence (whole entry): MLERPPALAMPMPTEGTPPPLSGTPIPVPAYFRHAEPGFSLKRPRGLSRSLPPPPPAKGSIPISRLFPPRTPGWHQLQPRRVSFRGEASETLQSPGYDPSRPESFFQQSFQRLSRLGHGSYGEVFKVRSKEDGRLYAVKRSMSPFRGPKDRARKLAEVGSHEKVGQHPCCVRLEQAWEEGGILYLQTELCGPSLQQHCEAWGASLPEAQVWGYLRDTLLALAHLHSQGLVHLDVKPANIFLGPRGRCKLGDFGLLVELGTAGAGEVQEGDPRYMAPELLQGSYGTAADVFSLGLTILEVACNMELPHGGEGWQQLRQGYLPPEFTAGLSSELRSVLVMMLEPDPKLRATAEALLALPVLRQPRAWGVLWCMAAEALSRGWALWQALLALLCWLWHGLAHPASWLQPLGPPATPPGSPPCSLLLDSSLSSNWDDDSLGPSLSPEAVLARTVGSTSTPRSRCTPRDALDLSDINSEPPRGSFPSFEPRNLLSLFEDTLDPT

[14] = Reduction in PKMYT1 level in human MV4-11 cells by measuring residual activity at 12.5 nM measured after 24 hrs by Western blot assay (reference value: 100%); format: functional
[15] = Reduction in PKMYT1 level in human MV4-11 cells by measuring residual activity at 25 nM measured after 24 hrs by Western blot assay (reference value: 100%); format: functional
[16] = Reduction in PKMYT1 level in human MV4-11 cells by measuring residual activity at 50 nM measured after 24 hrs by Western blot assay (reference value: 100%); format: functional
[17] = Reduction in PKMYT1 level in human MV4-11 cells by measuring residual activity at 100 nM measured after 24 hrs by Western blot assay (reference value: 100%); format: functional
[18] = Reduction in PKMYT1 level in human MV4-11 cells by measuring residual activity at 200 nM measured after 24 hrs by Western blot assay (reference value: 100%); format: functional
[19] = biological target: Cyclin-dependent kinase 1 (Homo sapiens) (UniProt P06493); test: Inhibition of CDK1 phosphorylation in human MV4-11 cells by measuring residual activity at 12.5 nM measured after 24 hrs by Western blot assay; format: cell-based
[20] = biological target: Cyclin-dependent kinase 1 (Homo sapiens) (UniProt P06493); test: Inhibition of CDK1 phosphorylation in human MV4-11 cells by measuring residual activity at 25 nM measured after 24 hrs by Western blot assay; format: cell-based
[21] = biological target: Cyclin-dependent kinase 1 (Homo sapiens) (UniProt P06493); test: Inhibition of CDK1 phosphorylation in human MV4-11 cells by measuring residual activity at 50 nM measured after 24 hrs by Western blot assay; format: cell-based
[22] = biological target: Cyclin-dependent kinase 1 (Homo sapiens) (UniProt P06493); test: Inhibition of CDK1 phosphorylation in human MV4-11 cells by measuring residual activity at 100 nM measured after 24 hrs by Western blot assay; format: cell-based
[23] = biological target: Cyclin-dependent kinase 1 (Homo sapiens) (UniProt P06493); test: Inhibition of CDK1 phosphorylation in human MV4-11 cells by measuring residual activity at 200 nM measured after 24 hrs by Western blot assay; format: cell-based
[24] = Downregulation of PLK1 in human MV4-11 cells assessed as 2 log fold change at 50 nM measured after 2 hrs by proteomic analysis; format: functional
[25] = Downregulation of JAK2 in human MV4-11 cells assessed as 2 log fold change at 50 nM measured after 2 hrs by proteomic analysis; format: functional
[26] = Downregulation of MAP3K4 in human MV4-11 cells assessed as 2 log fold change at 50 nM measured after 2 hrs by proteomic analysis; format: functional
[27] = Half life in ICR mouse at 10 mg/kg, iv measured upto 360 mins; format: ADME, organism-based; conditions: in vivo
MV4-11 [28] = test: Induction of apoptosis in human […] -/- MV4-11 cells at 50 to 400 nM measured after 48 hrs by AnnexinV/PI staining based flow cytometry analysis; format: functional, cell-based; conditions: dose 50-400 nM
MV4-11 [29] = test: Induction of apoptosis in human MV4-11 cells assessed as cleaved PARP expression at 100 nM incubated for 24 hrs by Western blot analysis; format: functional, cell-based
MV4-11 [30] = test: Induction of apoptosis in human MV4-11 cells assessed as cleaved caspase-3 expression at 100 nM incubated for 24 hrs by Western blot analysis; format: functional, cell-based
[31] = AUClast in ICR mouse at 10 mg/kg, iv measured upto 360 mins; format: ADME, organism-based; parameters: dose 10 mg/kg, time < 360 min, route iv; conditions: in vivo
[32] = Observed AUCinfinity ICR mouse at 10 mg/kg, iv measured upto 360 mins; format: ADME, organism-based; parameters: dose 10 mg/kg, time < 360 min, route iv; conditions: in vivo
[33] = Observed MRTinfinity ICR mouse at 10 mg/kg, iv measured upto 360 mins; format: ADME, organism-based; conditions: in vivo
[34] = biological target: Cyclin-dependent kinase 1 (Homo sapiens) (UniProt P06493); test: Inhibition of CDK1 in human MV4-11 cells assessed as dephosphorylation at 50 nM pretreated for 2 hrs followed by replacement with fresh medium and measured after 24 hrs by Western blot method; format: cell-based; conditions: time 26.0 hrs
MV4-11 [35] = test: Induction of […] in human MV4-11 cells assessed as change in gammaH2AX level at 12.5 to 200 nM measured after 24 hrs by Western blot analysis; format: functional, cell-based; conditions: dose 12.5-200 nM

Sequence of Serine/threonine-protein kinase PLK1 (P53350 whole entry): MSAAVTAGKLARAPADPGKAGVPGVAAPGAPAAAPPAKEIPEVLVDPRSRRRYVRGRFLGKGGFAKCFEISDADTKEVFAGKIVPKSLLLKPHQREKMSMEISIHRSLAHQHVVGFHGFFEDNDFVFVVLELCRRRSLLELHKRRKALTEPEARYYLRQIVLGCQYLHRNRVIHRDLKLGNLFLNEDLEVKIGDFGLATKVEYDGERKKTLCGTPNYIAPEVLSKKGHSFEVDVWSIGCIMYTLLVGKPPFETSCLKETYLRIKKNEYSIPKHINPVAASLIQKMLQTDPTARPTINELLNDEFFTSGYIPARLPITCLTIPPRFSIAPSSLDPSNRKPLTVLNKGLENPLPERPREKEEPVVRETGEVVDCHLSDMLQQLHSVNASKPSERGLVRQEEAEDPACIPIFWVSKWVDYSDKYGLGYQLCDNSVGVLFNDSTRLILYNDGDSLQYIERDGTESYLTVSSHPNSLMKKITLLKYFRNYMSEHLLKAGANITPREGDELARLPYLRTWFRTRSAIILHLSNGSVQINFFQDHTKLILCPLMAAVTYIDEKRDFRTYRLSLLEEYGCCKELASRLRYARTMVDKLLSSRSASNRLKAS

IC50 [1]: 2.97 µM
Activity [9]: 96%
Activity [10]: 102%
Activity [11]: 75%
Activity [12]: 120%
Activity [13]: Active
Activity [19]: 88%
Activity [20]: 80%
Activity [21]: 50%
Activity [22]: 22%
Activity [23]: 20%
half-life [27]: 1.31 h
AUC(0-t) at 6 h [31]: 4580 ng·h/mL
AUC(0-inf) [32]: 4660 ng·h/mL
MRT inf [33]: 0.943 h
inhibition [34]: Active
SMILES: C=CCn1c(=O)c2cnc(Nc3ccc(N4CCN(CCCCNc5cccc6c5C(=O)N(C5CCC(=O)NC5=O)C6=O)CC4)cc3)nc2n1-c1cccc(C(C)(C)O)n1 (stereo not given)
Activity (MV4-11 [2]): inactive
Activity (MV4-11 [3]): inactive
Activity (MV4-11 [4]): inactive
Activity (MV4-11 [5]): inactive
Activity (MV4-11 [6]): Dose-Dependent Effect
Activity (MV4-11 [7]): Dose-Dependent Effect
Activity (MV4-11 [8]): Dose-Dependent Effect
Activity [14]: 113%
Activity [15]: 99%
Activity [16]: 38%
Activity [17]: 37%
Activity [18]: 25%
FC [24]: 0.38
FC [25]: -0.1
FC [26]: -0.06
Activity (MV4-11 [28]): inactive
Activity (MV4-11 [29]): Active
Activity (MV4-11 [30]): Active
Activity (MV4-11 [35]): inactive
